Measurements from patent US7494987B2, “Agent for treating respiratory diseases containing 4-hydroxypiperidine derivative as active ingredient” (priority 2002, dated 2009).

Experiments:
[1] = system: Citric Acid-Induced Cough Reflex in Guinea Pigs; experiment: Inhibitory action on citric acid-induced cough reflex in guinea pigs (Experimental Example 1-2, nasal inhalation-exposure apparatus); type: in vivo; settings: oral, 30 mg/kg, cough measured 1 hr after treatment
Experimental: Guinea pigs were fasted overnight. They were fixed to an nasal inhalation-exposure apparatus for small animals (M.I.P.S. Co., Ltd.), and then 20 W/V % citric acid solution was sprayed into the plethysmograph for 2 min (about 1 mL/min) using a nebulizer (M.I.P.S. Co., Ltd.). The number of cough response for 15 min after the spray was measured.
(§1) The cough response was measured 3 hrs before and 1 hr after oral treatment. The test compound was not administered to the guinea pigs showing 5 cough responses or less before the treatment. The ratio of cough response between before and after the treatment (Post/Pre×100) was calculated, and the percent inhibition of the test compound on cough reflex induced by citric acid was determined according to the following formula: [(CRRcontrol−CRRtest)/(CRRcontrol)]×100 (%) • CRRcontrol: Ratio (%) of cough response in the control group • CRRtest: Ratio (%) of cough response in the compound-treated group.

[2] = system: Citric Acid-Induced Cough Reflex in Guinea Pigs; experiment: Inhibitory effect on citric acid-induced cough reflex in guinea pigs (Experimental Example 1-1, plethysmograph); type: in vivo; settings: oral, cough measured 1 hr after treatment
Experimental: Guinea pigs were fasted overnight. They were fixed to a plethysmograph, and then the change of inner pressure in the plethysmograph (body side) was recorded on an ink-recording paper (Nihon Kohden Corporation; WI-642G) via the differential pressure transducer (Nihon Kohden Corporation; TP-602T) and the respiration amplifier (Nihon Kohden Corporation; AR-601G). Using a nebulizer (OMRON Corporation; NE-U12), 20 W/V % citric acid solution was sprayed into the plethysmograph (head side) for 2 min (about 1 mL/min). The number of cough response for 15 min after the spray was measured.
as §1, with “coughs response” for “cough responses”, “group” for “group.”

[3] = system: Wistar Hannover female rats; experiment: Toxicological study, 14-day repeated oral dose in rats; type: in vivo; settings: 400 mg/kg/day once daily for 14 days
Experimental: The compound of Example 26 was orally given to 6-week-old Wistar Hannover female rats at 400 mg/kg/day once daily for 14 days.

male rhesus monkeys [4] = experiment: Toxicological study, 14-day repeated oral dose in rhesus monkeys; type: in vivo; settings: 40 mg/kg/day once daily for 14 days
Experimental: The compound of Example 36 or Example 26 was orally given to 3-year-old male rhesus monkeys at 20 mg/kg/day or 40 mg/kg/day, respectively, once daily for 14 days.

male rhesus monkeys [5] = experiment: Holter ECG test in rhesus monkeys; type: in vivo; settings: oral, 80 mg/kg, 4-year-old male rhesus monkeys
Experimental: In Holter ECG test, the compound of Example 36 or Example 26 was orally given to 4-year-old male rhesus monkeys at 40 mg/kg and 80 mg/kg, respectively.

[6] = Pharmacokinetics, time-course of plasma concentration after single oral treatment; type: in vivo, rhesus monkeys
Source text: The compound of Example 36 or Example 26 was studied about time-course of plasma concentration after single oral treatment to 3- or 4-year-old male rhesus monkeys. […] The relationship between the dose and the plasma concentration was linear. […] Therefore, it can be considered that these compounds are unlikely to be metabolized by first pass effect.

[7] = system: human drug-metabolizing enzymes; experiment: Inhibitory effect on human drug-metabolizing enzymes; type: in vitro ADME
[8] = system: liver microsomes and hepatocytes of humans; experiment: Metabolic stability in liver microsomes and hepatocytes, humans; type: in vitro ADME
[9] = system: liver microsomes and hepatocytes of monkeys; experiment: Metabolic stability in liver microsomes and hepatocytes, monkeys; type: in vitro ADME
[10] = system: liver microsomes and hepatocytes of dogs; experiment: Metabolic stability in liver microsomes and hepatocytes, dogs; type: in vitro ADME
[11] = system: liver microsomes and hepatocytes of rats; experiment: Metabolic stability in liver microsomes and hepatocytes, rats; type: in vitro ADME

CN(CC1(O)CN(CCc2ccc(C#N)cc2)C1)c1ccc(C(=O)O)cc1.Cl [Example 34, 4-({1-[2-(4-Cyanophenyl)ethyl]-3-hydroxyazetidin-3-ylmethyl}methylamino)benzoic acid monohydrochloride]
Percent inhibition on cough reflex [1]: 39% | melting point: 209.1 to 210.5 °C

CN(CC1(O)CCN(CCc2ccc(C(F)(F)F)cc2)CC1)c1ccc(C(=O)O)cc1.Cl [Example 35, 4-({4-hydroxy-1-[2-(4-trifluoromethylphenyl)ethyl]piperidin-4-ylmethyl}methylamino)benzoic acid monohydrochloride]
Percent inhibition on cough reflex [1]: 43% | melting point: 235.1 to 246.9 °C

CN(CC1(O)CCN(CCc2ccc(C#N)cc2)C1)c1ccc(C(=O)O)cc1.Cl (stereo not shown) [Example 29, 4-({1-[2-(4-Cyanophenyl)ethyl]-3-hydroxypyrrolidin-3-ylmethyl}methylamino)benzoic acid monohydrochloride]
Percent inhibition on cough reflex [1]: 39% | melting point: 122.8 to 132.5 °C

CN(CC1(O)CCN(CCc2ccc(C#N)cc2)CC1)c1ccc(C(=O)O)cc1.Cl [Example 26, 4-({1-[2-(4-cyanophenyl)ethyl]-4-hydroxypiperidin-4-ylmethyl}methylamino)benzoic acid monohydrochloride]
Percent inhibition on cough reflex ([2]; 30 mg/kg): 59% | abnormality in general behaviors, weight gains, and food consumptions [3]: no abnormality | findings in hematological and biochemical examinations, organ weights and histopathological tests [3]: No abnormal findings | survival until 24 hours after the final treatment [3]: survived | abnormality in weight gains and general behaviors (male rhesus monkeys [4]): no abnormality | findings in hematological and biochemical examinations, organ weights and histopathological tests (male rhesus monkeys [4]): No apparent toxicological findings | survival until 24 hours after the final treatment (male rhesus monkeys [4]): survived | effect on electrocardiogram (male rhesus monkeys [5]): no effect | bioavailability ([6]; 3- or 4-year-old male rhesus monkeys): high | area under the plasma concentration-time curve (AUC), dependence on dose ([6]; rhesus monkeys): increased almost in proportion to the doses | maximum plasma concentration (Cmax), dependence on dose ([6]; rhesus monkeys): increased almost in proportion to the doses | relationship between the dose and the plasma concentration ([6]; rhesus monkeys): linear | inhibitory effect on human drug-metabolizing enzymes [7]: almost no inhibitory effect | metabolic stability in liver microsomes and hepatocytes [8]: metabolically stable | metabolic stability in liver microsomes and hepatocytes [9]: metabolically stable | metabolic stability in liver microsomes and hepatocytes [10]: metabolically stable | metabolic stability in liver microsomes and hepatocytes [11]: metabolically stable

COc1ccc2c3c1O[C@H]1[C@@H](O)C=C[C@H]4[C@@H](C2)N(C)CC[C@@]341 [Codeine phosphate]
Percent inhibition on cough reflex ([2]; 10 mg/kg): 40% | Percent inhibition on cough reflex ([2]; 30 mg/kg): 44% | Percent inhibition on cough reflex ([2]; 60 mg/kg): 66%

Cn1c(=O)c2[nH]cnc2n(C)c1=O [Theophylline]
Percent inhibition on cough reflex ([2]; 20 mg/kg): 37%

CN(CC1(O)CCN(CCc2ccc(C#N)cc2)CC1)c1ccc(C(=O)NO)cc1.Cl
melting point: 191.3 to 193.9 °C
